Molecular target: Kappa-type opioid receptor (Homo sapiens, UniProt P41145)
Test: KOR antagonists by imaging, SAR follow-up, image-based (AID 2348)

Chain of Kappa-type opioid receptor (P41145 whole entry): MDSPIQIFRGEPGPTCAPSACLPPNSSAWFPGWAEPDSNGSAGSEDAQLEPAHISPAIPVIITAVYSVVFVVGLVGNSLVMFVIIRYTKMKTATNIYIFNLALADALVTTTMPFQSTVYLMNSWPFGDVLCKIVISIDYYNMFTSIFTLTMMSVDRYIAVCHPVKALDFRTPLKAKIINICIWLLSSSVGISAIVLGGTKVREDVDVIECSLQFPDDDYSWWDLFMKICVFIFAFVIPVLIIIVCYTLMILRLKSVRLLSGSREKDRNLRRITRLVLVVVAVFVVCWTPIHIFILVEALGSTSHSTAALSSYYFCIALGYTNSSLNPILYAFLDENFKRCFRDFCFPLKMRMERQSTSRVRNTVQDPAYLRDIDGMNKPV

| IC50 | SMILES |
| --- | --- |
| 24.8 µM | Oc1ccc(CN=Nc2ccnc3cc(Cl)ccc23)cc1O [(4Z)-4-[[2-(7-chloroquinolin-4-yl)hydrazinyl]methylidene]-2-hydroxycyclohexa-2,5-dien-1-one] |
| 3.62 µM | CCC(N=Nc1ccnc2cc(Cl)ccc12)c1ccc(O)cc1 (configuration not stated) [4-[1-[2-(7-chloroquinolin-4-yl)hydrazinyl]propylidene]cyclohexa-2,5-dien-1-one] |
